# Data published in patent publication US20240207285A1 (Melt Pharmaceuticals, Inc., priority 2022, published 2024).
# Key:
# [1] = test system: subjects undergoing cataract extraction with lens replacement (CELR); assay: Phase 2 subjects wanting study drug again for a second surgery (11-point Likert scale); format: in vivo, human
# From the text: Post-operation, subjects were asked whether they would want the study drug again for a second surgery using an 11-point Likert scale of 0 (not likely at all) to 10 (extremely likely).
# [2] = test system: subjects undergoing cataract extraction with lens replacement (CELR); assay: Phase 2 subject-rated worst pain during surgery by the numeric pain rating scale; format: in vivo, human; settings: carry forward
# [3] = test system: subjects undergoing cataract extraction with lens replacement (CELR); assay: Phase 2 subjects requiring rescue analgesic medication; format: in vivo, human; settings: Visit 2 (Day 1); Full Analysis Set
# Description: (§1) The number of subjects achieving analgesia response (observed) in the full analysis set was determined. Success in analgesia response was defined as NPRS <4 at the available at the available four intraoperative timepoints and a failure otherwise (e.g., any interoperative pain rescue was assumed to be a failure. Results are provided in TABLE 24. The number of subjects completing the surgery is provided in TABLE 25, and the number of subjects completing the surgery without interruption is provided in TABLE 26. For this measure, subjects completing the surgery without interruption (other than rescue medication) due to pain or anxiety were considered successes. The number of subjects requiring rescue sedative medication and those requiring analgesic medication are provided in TABLES 27 and 28, respectively. For all TABLES 24-28, p-Values between pairs of treatments were calculated and are provided.
# [4] = test system: subjects undergoing cataract extraction with lens replacement (CELR); assay: Phase 2 treatment-emergent ocular adverse events (study eye, non-study eye, either eye); settings: for Eye disorders, % / General disorders and administration site conditions, % / Infections and infestations, % / Injury, poisoning and procedural complications, % / Investigations, %: system organ class
# Description: (§2) The Phase 2 study was factorial-designed, randomized, double-blind, placebo-controlled, and included parallel-cohorts. […] Primary efficacy endpoints included appropriate sedation during the cataract surgery and management of intraoperative pain during the surgery.
# The study eye (TABLE 31) non-study eye (TABLE 32), or either eye (TABLE 33) was assessed. TEAES were defined as events that started on or after the date of the study drug administration through the end of Visit 4 or early withdrawal. Subjects with one or more adverse event within a level of Medical Dictionary for Regulatory Activities (MedDRA) were counted only once in that level.
# [5] = test system: subjects undergoing cataract extraction with lens replacement (CELR); assay: Phase 2 subjects requiring rescue sedative medication; format: in vivo, human; settings: Visit 2 (Day 1)
# Description: as §1
# [6] = test system: subjects undergoing cataract extraction with lens replacement (CELR); assay: Phase 2 subjects achieving analgesia response (NPRS <4); format: in vivo, human; settings: Visit 2 (Day 1), observed
# Description: as §1
# [7] = test system: subjects undergoing cataract extraction with lens replacement (CELR); assay: Phase 2 mean intraoperative analgesia by the numeric pain rating scale; format: in vivo, human
# Description: An average of the available timepoints was also calculated.
# [8] = test system: subjects undergoing cataract extraction with lens replacement (CELR); assay: Phase 2 subjects completing the surgery without interruption; format: in vivo, human; settings: Visit 2 (Day 1); Full Analysis Set
# Description: as §1
# [9] = test system: subjects undergoing cataract extraction with lens replacement (CELR); assay: Phase 2 subjects achieving procedural sedation (RSS 2 or 3 without rescue); format: in vivo, human; settings: Visit 2 (Day 1), Full Analysis Set
# Description: A Phase 2 efficacy and safety study of the MELT-300 formulation was conducted at nine sites with over 300 enrolled subjects. MELT-300 is a sublingual, needle- and opioid-free formulation for procedural sedation during cataract surgery. […] MELT-300 utilizes fast-dissolving delivery technology (Zydis®, Catalent Inc.) to rapidly dissolve the tablet for absorption across the sublingual mucosa.
# as §2
# Achievement of procedural sedation was evaluated for each subject (see TABLE 19). Success for procedural sedation for this Phase 2 study was defined as achieving target sedation level (Ramsay Sedation Scale (RSS) scale level 2 or 3) at the start of surgery without the need for rescue sedation medication, and no need for intraoperative rescue sedation medication to maintain target sedation level.
# [10] = test system: subjects undergoing cataract extraction with lens replacement (CELR); assay: Phase 2 subjects receiving opioid concomitant medication postoperatively; format: in vivo, human
# [11] = test system: subjects undergoing cataract extraction with lens replacement (CELR); assay: Phase 2 subjects completing the surgery; format: in vivo, human; settings: Visit 2 (Day 1); Full Analysis Set
# Description: as §1
# [12] = 11-point Likert scale 0 (not likely at all) to 10 (extremely likely)
# [13] = Average of available timepoints, adjusted for site table, carry forward
# [14] = Average of available timepoints, carry forward
# [15] = Average of available timepoints, observed
# [16] = Corneal incision, adjusted for site table, carry forward
# [17] = Corneal incision, carry forward
# [18] = Insertion of the phacoemulsion probe, adjusted for site table, carry forward
# [19] = Insertion of the phacoemulsion probe, carry forward
# [20] = Insertion of the phacoemulsion probe, observed
# [21] = Insertion of the speculum, adjusted for site table, carry forward
# [22] = Insertion of the speculum, carry forward
# [23] = Insertion of the speculum, observed
# [24] = Insertion of the synthetic replacement lens, adjusted for site table, carry forward
# [25] = Insertion of the synthetic replacement lens, carry forward
# [26] = Insertion of the synthetic replacement lens, observed
# [27] = adjusted for site, carry forward
# [28] = carry forward, repeated measures model
# [29] = observed, repeated measures model
smiles,measurement,setting,value
Cc1ncc2n1-c1ccc(Cl)cc1C(c1ccccc1F)=NC2 [Midazolam 3 mg],"Want Study Drug Again, mean",[1]; [12],8.4
same,"Want Study Drug Again, median",[1]; [12],10.0
same,"Want Study Drug Again, Mean Difference versus ketamine",[1]; unpaired t-test,0.80
same,"Want Study Drug Again, Mean Difference versus placebo",[1]; unpaired t-test,0.75
same,"Worst Pain During Surgery, Mean Difference versus ketamine",[2],0.38
same,"Worst Pain During Surgery, Mean Difference versus placebo",[2],0.05
same,"Worst Pain During Surgery (NPRS), mean",[2]; Full Analysis Set,4.0
same,"Worst Pain During Surgery (NPRS), median",[2]; Full Analysis Set,4.0
same,"Subjects requiring rescue analgesic medication: No, %",[3],(56.8) %
same,"Subjects requiring rescue analgesic medication: Yes, %",[3],(43.2) %
same,"Cataract operation complication, %",[4]; Either Eye,(0) %
same,"Conjunctivitis bacterial, %",[4]; Either Eye,(0) %
same,"Corneal abrasion, %",[4]; Either Eye,(0) %
same,"Corneal oedema, %",[4]; Either Eye,(0) %
same,"Endophthalmitis, %",[4]; Either Eye,(0) %
same,"Eye pain, %",[4]; Either Eye,(3.4) %
same,"Foreign body sensation in eyes, %",[4]; Either Eye,(0) %
same,"Intraocular pressure increased, %",[4]; Either Eye,(2.3) %
same,"Ocular hypertension, %",[4]; Either Eye,(1.1) %
same,"Pain, %",[4]; Either Eye,(0) %
same,"Paracentesis eye, %",[4]; Either Eye,(0) %
same,"Procedural pain, %",[4]; Either Eye,(1.1) %
same,"Subjects with Any Treatment-Emergent Ocular AEs, %",[4]; Either Eye,(9.2) %
same,"Vision blurred, %",[4]; Either Eye,(1.1) %
same,"Eye disorders, %",[4]; Either Eye,(5.7) %
same,"General disorders and administration site conditions, %",[4]; Either Eye,(0) %
same,"Infections and infestations, %",[4]; Either Eye,(0) %
same,"Injury, poisoning and procedural complications, %",[4]; Either Eye,(1.1) %
same,"Investigations, %",[4]; Either Eye,(2.3) %
same,"Conjunctivitis bacterial, %",[4]; Non-Study Eye,(0) %
same,"Eye pain, %",[4]; Non-Study Eye,(0) %
same,"Subjects with Any Treatment-Emergent Ocular AEs, %",[4]; Non-Study Eye,(1.1) %
same,"Vision blurred, %",[4]; Non-Study Eye,(1.1) %
same,"Eye disorders, %",[4]; Non-Study Eye,(1.1) %
same,"Infections and infestations, %",[4]; Non-Study Eye,(0) %
same,"Cataract operation complication, %",[4]; Study Eye,(0) %
same,"Corneal abrasion, %",[4]; Study Eye,(0) %
same,"Corneal oedema, %",[4]; Study Eye,(0) %
same,"Endophthalmitis, %",[4]; Study Eye,(0) %
same,"Eye pain, %",[4]; Study Eye,(3.4) %
same,"Foreign body sensation in eyes, %",[4]; Study Eye,(0) %
same,"Intraocular pressure increased, %",[4]; Study Eye,(2.3) %
same,"Ocular hypertension, %",[4]; Study Eye,(1.1) %
same,"Pain, %",[4]; Study Eye,(0) %
same,"Procedural pain, %",[4]; Study Eye,(1.1) %
same,"Subjects with Any Treatment-Emergent Ocular AEs, %",[4]; Study Eye,(8.0) %
same,"Eye disorders, %",[4]; Study Eye,(4.6) %
same,"General disorders and administration site conditions, %",[4]; Study Eye,(0) %
same,"Infections and infestations, %",[4]; Study Eye,(0) %
same,"Injury, poisoning and procedural complications, %",[4]; Study Eye,(1.1) %
same,"Investigations, %",[4]; Study Eye,(2.3) %
same,"Paracentesis eye, %",[4]; printed in the Non-Study Eye table,(0) %
same,"Subjects requiring rescue sedative medication: No, %",[5]; Full Analysis Set,(65.4) %
same,"Subjects requiring rescue sedative medication: Yes, %",[5]; Full Analysis Set,(34.6) %
same,"Subjects requiring rescue sedative medication: Intraoperatively, %",[5]; Intraoperatively,(8.6) %
same,"Subjects requiring rescue sedative medication: Pre-operatively, %",[5]; Pre-operatively,(25.9) %
same,"Subjects achieving analgesia response: Yes, %",[6]; NPRS <4 at four intraoperative timepoints,40.7%
same,"Subjects achieving analgesia response: No, %",[6],59.3%
same,"Intraoperative NPRS, LS Mean","[7]; Average of available timepoints, adjusted for site (study center covariate), carry forward",2.12
same,"Intraoperative NPRS, mean",[7]; [13],2.37
same,"Intraoperative NPRS, median",[7]; [13],2.00
same,"Intraoperative NPRS, mean",[7]; [14],2.37
same,"Intraoperative NPRS, median",[7]; [14],2.00
same,"Intraoperative NPRS, LS Mean","[7]; Average of available timepoints, carry forward, repeated measures model",2.37
same,"Intraoperative NPRS, mean",[7]; [15],2.18
same,"Intraoperative NPRS, median",[7]; [15],2.00
same,"Intraoperative NPRS, LS Mean","[7]; Average of available timepoints, observed, repeated measures model",2.46
same,"Intraoperative NPRS, mean",[7]; [16],1.8
same,"Intraoperative NPRS, median",[7]; [16],1.0
same,"Intraoperative NPRS, mean",[7]; [17],1.8
same,"Intraoperative NPRS, median",[7]; [17],1.0
same,"Intraoperative NPRS, mean","[7]; Corneal incision, observed",1.8
same,"Intraoperative NPRS, median","[7]; Corneal incision, observed",1.0
same,"Intraoperative NPRS, mean",[7]; [18],2.9
same,"Intraoperative NPRS, median",[7]; [18],3.0
same,"Intraoperative NPRS, mean",[7]; [19],2.9
same,"Intraoperative NPRS, median",[7]; [19],3.0
same,"Intraoperative NPRS, mean",[7]; [20],2.5
same,"Intraoperative NPRS, median",[7]; [20],2.0
same,"Intraoperative NPRS, mean",[7]; [21],1.1
same,"Intraoperative NPRS, median",[7]; [21],0.0
same,"Intraoperative NPRS, mean",[7]; [22],1.1
same,"Intraoperative NPRS, median",[7]; [22],0.0
same,"Intraoperative NPRS, mean",[7]; [23],1.1
same,"Intraoperative NPRS, median",[7]; [23],0.0
same,"Intraoperative NPRS, mean",[7]; [24],3.6
same,"Intraoperative NPRS, median",[7]; [24],4.0
same,"Intraoperative NPRS, mean",[7]; [25],3.6
same,"Intraoperative NPRS, median",[7]; [25],4.0
same,"Intraoperative NPRS, mean",[7]; [26],2.9
same,"Intraoperative NPRS, median",[7]; [26],3.0
same,"Intraoperative NPRS, LS Mean Difference versus ketamine",[7]; [27],0.22
same,"Intraoperative NPRS, LS Mean Difference versus placebo",[7]; [27],−0.08
same,"Intraoperative NPRS, LS Mean Difference versus ketamine",[7]; [28],0.20
same,"Intraoperative NPRS, LS Mean Difference versus placebo",[7]; [28],−0.12
same,"Intraoperative NPRS, LS Mean Difference versus ketamine",[7]; [29],0.24
same,"Intraoperative NPRS, LS Mean Difference versus placebo",[7]; [29],−0.01
same,"Subjects completing the surgery without interruption: No, %",[8],(0) %
same,"Subjects completing the surgery without interruption: Yes, %",[8],(100.0) %
same,"Subjects achieving procedural sedation: No, %",[9],35.8%
same,"Subjects achieving procedural sedation: Yes, %",[9]; RSS 2 or 3 without rescue sedation,64.2%
same,"Received Postoperative Opioid on Day 2: No, %",[10]; Day 2,(100.0) %
same,"Received Postoperative Opioid on Day 2: Yes, %",[10]; Day 2,(0.0) %
same,"Received Postoperative Opioid on Day 2-8: No, %",[10]; Day 2-8,(100.0) %
same,"Received Postoperative Opioid on Day 2-8: Yes, %",[10]; Day 2-8,(0.0) %
same,"Subjects completing the surgery: No, %",[11],0 (0) %
same,"Subjects completing the surgery: Yes, %",[11],100.0%
